Laboratory results taken from paper PMC7613515, “Reading and erasing of the phosphonium analogue of trimethyllysine by epigenetic proteins” (Communications Chemistry, 2022).

Key:
KDM4EJmjC (M1–Q337) [1] = biological target: T1, KDM4EJmjC (M1–Q337) (Homo sapiens, UniProt B2RXH2); experiment: LC-MS demethylation assay, KDM4EJmjC; assay type: biochemical; details: LC-MS time-course, KDM4EJmjC 0.5 µM, peptide 5.0 µM, 22 °C
T1 construct: We chose human KDM4EJmjC (M1–Q337); made in house
T1 sequence (B2RXH2 1-337): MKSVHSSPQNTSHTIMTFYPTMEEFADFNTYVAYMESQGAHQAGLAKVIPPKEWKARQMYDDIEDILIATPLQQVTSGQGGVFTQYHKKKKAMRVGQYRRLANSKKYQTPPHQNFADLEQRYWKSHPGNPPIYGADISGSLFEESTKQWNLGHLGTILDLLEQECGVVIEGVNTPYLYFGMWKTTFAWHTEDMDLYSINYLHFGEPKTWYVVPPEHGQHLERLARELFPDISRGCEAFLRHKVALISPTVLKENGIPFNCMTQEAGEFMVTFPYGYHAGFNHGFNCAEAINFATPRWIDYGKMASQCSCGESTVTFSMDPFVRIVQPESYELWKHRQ
Procedure: KDM4EJmjC demethylation studies of H3_1-15K9me3 or H3_1-15KP9me3 incubations using LC-MS were conducted as reported[31], using Agilent RapidFire 365 and Agilent QTOF 6530 machines. In brief, samples were aspirated under vacuum (~50 µL), passed through a loop (10 µL, 400 ms) and wash on a SPE cartridge A (C4) using solvent A (1.5 mL·min^−1, 4500 ms). Peptides were eluted using solvent B (1.25 mL·min^−1, 4500 ms) and directed to the MS for measurements. The cartridge was equilibrated for the next sample (1.25 mL·min^−1, 500 ms) and needle was cleaned with an organic wash solution. Between each sample, an alternating inorganic, organic and inorganic washes were performed to avoid any potential carry over on the SPE cartridge from previous sample. Solvent A: formic acid (0.1%) in water; Solvent B: formic acid (0.1%), acetonitrile (85%) in water; Inorganic wash: water; Organic wash: acetonitrile. Demethylation reactions were conducted in a temperature-controlled room (22 °C) and the MS machine Real-time monitoring mode. A solution [Peptide (6.0 µM), sodium L-ascorbate (600 µM), (NH4)2Fe(II)(SO4)2 (60 µM), disodium 2OG salt (120 µM) in buffer] […] (100 µL) was added and samples from the solution were taken every 2–2.5 min and measured. Note that the time was recorded between the addition and the first aspiration of the enzymatic reaction mixture [Peptide and Enzyme solution mixture]. […]

KDM4EJmjC (M1–Q337) [2] = biological target: T1, KDM4EJmjC (M1–Q337); experiment: NMR demethylation assay (1H, 31P), KDM4EJmjC; assay type: biochemical; details: KDM4EJmjC 50 µM
Procedure: Incubations of H3_1-15KP9me3 with KDM4EJmjC were performed in Eppendorf tubes (1.5 mL). Conditions used for ^1H and ^31P NMR time-courses: H3_1-15KP9me3 (250 µM) was incubated with KDM4EJmjC (50 µM), sodium ascorbate (1.00 mM), 2OG (500 µM), and Fe(NH4)2(SO4)2 (100 µM) in HEPES-d18 buffer (50 mM, pH 7.5) in D2O ( > 95% ^2H). Reactions (160 µL total volume) were quenched by addition of HCl (1 M, 10 equivalents) after the indicated time. The samples were centrifuged (1 min, 14,500 rpm) and the supernatant transferred to an NMR tube (3 mm, Norell). For characterisation of the products from the incubation of H3_1-15KP9me3 with KDM4EJmjC the following conditions were used: Peptide H3_1-15KP9me3 (500 µM) was incubated with sodium ascorbate (1.00 mM) 2-oxoglutarate (1.00 mM), Fe(NH4)2(SO4)2 (100 µM), and KDM4EJmjC (50.0 µM), in HEPES-d18 buffer (50 mM, pH 7.5) in D2O (>95% ^2H) for 1 hour. Reactions were quenched by addition of HCl (1 M, 10 equivalents), or by heating (95 °C, 10 min). Precipitated proteins were removed by centrifugation (1 min, 14,500 rpm) and the supernatant transferred to an NMR tube (3 mm, Norell). Spectra were measured using a Bruker 600 MHz machine and analysed using MestReNova 14.1 (MestReLabs, Spain; www.mestrelab.com) and Topspin 3.6.1 (Bruker, Germany; www.bruker.com). […]

ARTKQTAR(KPme3)STGGKA [H3KP9me3, histone H3 residues 1–15 with trimethylphosphonium lysine analogue at position 9]
demethylation (KDM4EJmjC (M1–Q337) [1]): both are substrates | demethylation (KDM4EJmjC (M1–Q337) [2]; 1H and 31P NMR, H3KP9me3 250 or 500 µM, HEPES-d18 pH 7.5 in D2O): the reaction proceeded to give signals corresponding to H3KP9me2 and H3KP9me2O | demethylation with 2OG turnover to succinate (KDM4EJmjC (M1–Q337) [2]; NMR time-course, H3KP9me3 250 µM): confirmed demethylation and conversion of 2OG to succinate
